Results from patent publication US11008286B2, “Amino mercaptan compound and preparation method therefor and use thereof in protection against radiation” (Institute of Radiation Medicine Chinese Academy of Medical …, priority 2016, dated 2021).
“And” between values parts separate entries of the source, which are not always exact repeats. Equal entries are not always repeated. Structures can show the parent of a compound that is named as a salt. Where two headings read alike, the source gives them in different places.

Legend:
[1] = cited from earlier work
C57 male mice [2] = experiment: Example E2: HE staining of small intestine on the 5th day after local abdominal irradiation; assay type: in vivo
Experimental: In amifostine group, intraperitoneal injection was performed 30 min before the local abdominal irradiation at 16Gy, wherein amifostine was dissolved in normal saline, 365 mpk.
In Example 4 group, intraperitoneal injection was performed 30 min before the local abdominal irradiation at 16Gy, wherein Example 4 was dissolved in normal saline, 517 mpk.
The mice were sacrificed on the 5th day after the irradiation, and the small intestine was taken and sectioned for HE staining.

C57 male mice [3] = test system: C57 male mice;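 as to survival rate compared with amifostine: mice aged 8-10 weeks, weighing 20-22 g, with deaths logged and survival rate computed on day 30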;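 as to survival rates compared with amifostine: mice aged 8-10 weeks, weighing 20-22 g, with deaths logged and survival rate computed on day 30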
Experimental: Laboratory animals: C57 male mice, 8-10 weeks old, 20-22 g, were divided into 4 groups, 5 or 10 or 15 or 20 or 25 mice in each group.
Observation index: The death and weight of the mice were recorded, and the survival rate was calculated on the 30th day.

C57 male mice [4] = assay type: in vivo; conditions: for Survival number/Test number: no irradiation, 30-day
Experimental: Administration and grouping: Each group was intraperitoneally injected with one corresponding dose of amifostine. • Each group was intraperitoneally injected with one corresponding dose of Example 17 (IP).
The 30-day survival rate of mice in each group was recorded.

C57 male mice [5] = experiment: Example F: radiation pneumonia, HE staining of right lung on the 60th day after 17Gy X rays; assay type: in vivo
Experimental: Administration and grouping: Mice were intraperitoneally injected with normal saline, Example 4 (400 mpk), and amifostine (200 mpk) respectively 30 min before irradiation, and the right lungs were irradiated at 17Gy by X rays. The right lungs were taken on the 60th day for HE staining (n=3):
Two months after irradiation of the unilateral lung, the most important lung manifestation was radiation pneumonia. […] The alveolar structure of mice in the 17Gy group was changed, which was manifested as a large area of inflammatory infiltration of the lung (the blue dots were inflammatory cells), and the alveoli were filled with inflammatory cells.

C57 male mice [6] = experiment: Example G: effect of stereoisomerism on survival rate of mice under 7.5Gy irradiation; assay type: in vivo; conditions: 200 mg/kg IP 30 min before irradiation
From the text: Laboratory animals: C57 male mice, 19-21 g, purchased from Beijing HFK Bioscience Co. Ltd., license number SCXK (Beijing), 9 mice in each group.

C57 male mice [7] = experiment: Example D: protective effect on the hematopoietic system after 4Gy irradiation; assay type: in vivo; conditions: 800 mpk IP 30 min before 4Gy
From the text: The mice were sacrificed on the 15th day after the irradiation, followed by blood collection. Femoral bone marrow cells, spleen and thymus were weighed, and cells were extracted for detecting the peripheral white blood cell (WBC) count, peripheral red blood cell (RBC) count, peripheral hemoglobin (HGB) concentration, peripheral platelet (PLT) count, peripheral blood lymphocyte ratio (LY %), and peripheral blood neutrophil ratio (NE %).
In addition, the number of leukocytes in bone marrow, ratio of hematopoietic stem cell (LSK) in bone marrow cells, ratio of hematopoietic progenitor cells (HPC) in bone marrow cells, ratio of CD34−LSK in bone marrow cells, and ratio of CD34+LSK in bone marrow cells were detected.
The effects of irradiation on LSK intracellular reactive oxygen species (ROS) level and HPC intracellular ROS level were also detected.

[8] = 6.8Gy, 200 mpk IP 30 min before irradiation, day 30
[9] = 15th day, vs irradiation control

NCCCNCCSP(=O)(O)O [Amifostine, amifostine, reference compound]
half-life [1]: 7 min
intestinal villi structure (HE staining) (C57 male mice [2]; 365 mpk IP 30 min before local abdominal irradiation at 16Gy): slight changes compared with the irradiation group
Survival number/Test number (C57 male mice [3]; [8]): 5/5
Survival rate (C57 male mice [3]; [8]): 100%
Survival number/Test number (C57 male mice [3]; 7.2Gy, 200 mpk IP, day 30): 9/10 and 12/15 and 4/5 and 7/10 and 20/25
Survival rate (C57 male mice [3]; 7.2Gy, 200 mpk IP, day 30): 90% and 80% and 70%
Survival number/Test number (C57 male mice [3]; 7.5Gy, 200 mpk IP, day 30): 5/5 and 4/5 and 1/10
Survival number/Test number (C57 male mice [3]; 7.5Gy, 365 mpk IP): 10/10
Survival rate (C57 male mice [3]; 7.5Gy, 365 mpk IP): 100%
Survival number/Test number (C57 male mice [3]; 10Gy, 517 mpk IP): 15/20
Survival rate (C57 male mice [3]; 10Gy, 517 mpk IP): 75%
Survival number/Test number (C57 male mice [3]; 12.5Gy, 517 mpk IP): 5/10
Survival rate (C57 male mice [3]; 12.5Gy, 517 mpk IP): 50%
Survival number/Test number (C57 male mice [4]; 400 mpk IP): 5/5
Survival number/Test number (C57 male mice [4]; 600 mpk IP): 5/5
Survival number/Test number (C57 male mice [4]; 800 mpk IP): 3/5
Survival number/Test number (C57 male mice [4]; 1600 mpk IP): 0/5
inflammatory cell infiltration of lung / incidence of radiation pneumonia (C57 male mice [5]; 200 mpk IP 30 min before 17Gy X rays to right lung): partially relieve inflammatory cell infiltration and reduce the incidence of radiation pneumonia

CNC(=O)[C@H](CS)NC(=O)[C@H](CS)NC(=O)[C@H](CS)NC [Example 4, (R)-3-mercapto-N—((R)-3-mercapto-1-(((R)-3-mercapto-1-(methylamino)-1-oxopropan-2-yl)amino)-1-oxopropan-2-yl)-2-(methylamino) propanamide trifluoroacetate]
Survival number/Test number (C57 male mice [6]): 5/9
Survival rate (C57 male mice [6]): approximately 56%
deaths (C57 male mice [6]; 9 mice per group): (4 deaths)
number of leukocytes (WBC) in bone marrow (C57 male mice [7]; 15th day): increased by administration of Example 4 with significant difference
ratio of hematopoietic progenitor cells (HPC) in bone marrow cells (HPC %) (C57 male mice [7]; 15th day): increased by administration of Example 4 with significant difference
ratio of hematopoietic stem cell (LSK) in bone marrow cells (LSK %) (C57 male mice [7]; 15th day): increased by administration of Example 4 with significant difference
ratio of CD34+LSK in bone marrow cells (C57 male mice [7]; 15th day, irradiation decreased CD34+LSK %): alleviated this abnormal differentiation with significant difference
ratio of CD34−LSK in bone marrow cells (C57 male mice [7]; 15th day, irradiation increased CD34−LSK %): alleviated this abnormal differentiation with significant difference
peripheral blood neutrophil ratio (NE %) (C57 male mice [7]; 15th day, irradiation increased NE %): alleviated this abnormal differentiation with significant difference
peripheral blood lymphocyte ratio (LY %) (C57 male mice [7]; 15th day, irradiation reduced LY %): alleviated this abnormal differentiation with significant difference
peripheral red blood cell (RBC) count (C57 male mice [7]; [9]): increased by administration of Example 4 with significant difference
peripheral white blood cell (WBC) count (C57 male mice [7]; [9]): increased by administration of Example 4 with significant difference
HPC intracellular ROS level (C57 male mice [7]; bone marrow): reduced the ROS levels with significant difference
LSK intracellular reactive oxygen species (ROS) level (C57 male mice [7]; bone marrow): reduced the ROS levels with significant difference
intestinal villi structure (HE staining) (C57 male mice [2]; 517 mpk IP 30 min before local abdominal irradiation at 16Gy): slight changes compared with the irradiation group
Survival number/Test number (C57 male mice [3]; 7.2Gy, 200 mpk IP, day 30): 20/25
Survival rate (C57 male mice [3]; 7.2Gy, 200 mpk IP, day 30): 80%
Survival number/Test number (C57 male mice [3]; 7.5Gy, 517 mpk IP): 9/10
Survival rate (C57 male mice [3]; 7.5Gy, 517 mpk IP): 90%
Survival number/Test number (C57 male mice [3]; 7.5Gy, 800 mpk IP): 7/10
Survival rate (C57 male mice [3]; 7.5Gy, 800 mpk IP): 70%
Survival number/Test number (C57 male mice [3]; 10Gy, 365 mpk IP): 15/20
Survival rate (C57 male mice [3]; 10Gy, 365 mpk IP): 75%
Survival number/Test number (C57 male mice [3]; 12.5Gy, 365 mpk IP): 4/10
Survival rate (C57 male mice [3]; 12.5Gy, 365 mpk IP): 40%
survival rates compared with amifostine (C57 male mice [3]; absorbed dose 6.8Gy and 7.2Gy): survival rates comparable to those using amifostine
survival rate compared with amifostine (C57 male mice [3]; higher absorbed dose, as high as 12.5Gy): a survival rate equivalent to those using amifostine
Survival number/Test number (C57 male mice [4]; 400 mpk IP): 10/10
Survival number/Test number (C57 male mice [4]; 600 mpk IP): 5/5
Survival number/Test number (C57 male mice [4]; 800 mpk IP): 10/10
Survival number/Test number (C57 male mice [4]; 900 mpk IP): 10/10
Survival number/Test number (C57 male mice [4]; 1000 mpk IP): 6/6 and 10/10
Survival number/Test number (C57 male mice [4]; 1100 mpk IP): 8/10
Survival number/Test number (C57 male mice [4]; 1200 mpk IP): 6/10
Survival number/Test number (C57 male mice [4]; 1600 mpk IP): 3/10
Survival rate (C57 male mice [4]; male, C57, mouse, in vivo, 1000 mg/kg, 30 day): 100%
safety compared with amifostine (C57 male mice [4]; mouse, in vivo): as safe as or even better than amifostine
inflammatory cell infiltration of lung / incidence of radiation pneumonia (C57 male mice [5]; 400 mpk IP 30 min before 17Gy X rays to right lung): partially relieve inflammatory cell infiltration and reduce the incidence of radiation pneumonia
